Experiment [1] has as its target T1, first (BD1: amino acids K57-E168) bromodomain of BRD4 (Homo sapiens, UniProt O60885).
T1 construct: His-tagged first (BD1: amino acids K57-E168)
As to the kind of experiment: TR-FRET bromodomain binding assay, BRD4 BD1. To be noted: TR-FRET assay protocol (A-G, compound concentration range); Ki calculated from IC50, probe Kd and probe concentration; read-out: TR-FRET Binding Ki: BRD4 (BDI_K57-E168). The procedure, abridged: (§1)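 Displacement of Alexa647-labeled BET-inhibitor probe from His-tagged bromodomain, TR-FRET read-out; buffer 20 mM Na phosphate pH 6.0, 50 mM NaCl, 0.01% Triton X-100. IC50 by 4PL fit; Ki calculated from IC50, probe Kd and probe concentration.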

In experiment [2] the test system is breast cancer cell line MX-1. Nature of the experiment: MX-1 cell line proliferation assay (3-day). The experiment is classed as cell-based. To be noted: Homo sapiens, MX1; MX-1 cells, 72 h incubation, Cell Titer Glo; read-out: Cellular proliferation: EC50. Here is the method: The impact of compounds of the Examples on cancer cell proliferation was determined using the breast cancer cell line MX-1 (ATCC) in a 3-day proliferation assay. MX-1 cells were maintained in RPMI supplemented with 10% FBS at 37° C. and an atmosphere of 5% CO2. For compound testing, MX-1 cells were plated in 96-well black bottom plates at a density of 5000 cells/well in 90 μL of culture media and incubated at 37° overnight to allow cell adhesion and spreading. Compound dilution series were prepared in DMSO via a 3-fold serial dilution from 3 mM to 0.1 μM. The DMSO dilution series were then diluted 1:100 in phosphate buffered saline, and 10 μL of the resulted solution were added to the appropriate wells of the MX-1 cell plate. The final compound concentrations in the wells were 3, 1, 0.3, 0.1, 0.03, 0.01, 0.003, 0.001, 0.0003 and 0.0001 μM.
Luminescence readings from the Cell Titer Glo assay were normalized to the DMSO treated cells and analyzed using the GraphPad Prism software with sigmoidal curve fitting to obtain EC50s.

Experiment [3] deals with T2, second (BD2: amino acids E352-E168) bromodomain of BRD4 (Homo sapiens, UniProt O60885).
T2 construct: protocol
As to the kind of experiment: TR-FRET bromodomain binding assay, BRD4 BD2. The following applies: TR-FRET assay protocol (A-G, compound concentration range); Ki calculated from IC50, probe Kd and probe concentration; read-out: TR-FRET Binding Ki: BRD4 (BDII_E352-M457). The procedure, abridged:
as §1

What is called Ki is the equilibrium dissociation constant of an inhibitor or competing ligand from its target. Turning to `COC(=O)CCc1ccc(-c2cc(=O)n(C)nc2-c2ccccc2Oc2ccccc2)cc1` [Example 92, methyl 3-{4-[1-methyl-6-oxo-3-(2-phenoxyphenyl)-1,6-dihydropyridazin-4-yl]phenyl}propanoate], the Ki is 770 nM in experiment [1] and 455 nM in experiment [3]. The EC50 in experiment [2] is 1130 nM.
The like results for `Cn1nc(-c2ccccc2Oc2ccccc2)c(-c2ccc(C3=NCCCO3)cc2)cc1=O` [Example 95, 5-[4-(5,6-dihydro-4H-1,3-oxazin-2-yl)phenyl]-2-methyl-6-(2-phenoxyphenyl)pyridazin-3(2H)-one] were, in that order, 172 nM, 145 nM and over 3000 nM.
In the same order, the values of `Cn1nc(-c2ccccc2Oc2ccccc2)c(-c2ccc(CNS(C)(=O)=O)cc2)cc1=O` [Example 98, N-{4-[1-methyl-6-oxo-3-(2-phenoxyphenyl)-1,6-dihydropyridazin-4-yl]benzyl}methanesulfonamide] are 216 nM, 71.2 nM and 639 nM.
As for `CC(=O)NCc1ccc(-c2cc(=O)n(C)nc2-c2ccccc2Oc2ccccc2)cc1` [Example 99, N-{4-[1-methyl-6-oxo-3-(2-phenoxyphenyl)-1,6-dihydropyridazin-4-yl]benzyl}acetamide], the inhibitory constant (Ki) in experiment [1] was 142 nM; in experiment [3] it was 58.7 nM. The EC50 in experiment [2] was determined as 558 nM.
In the same order, the values of `CC(=O)NCCc1ccc(-c2cc(=O)n(C)nc2-c2ccccc2Oc2ccccc2)cc1` [Example 100, N-(2-{4-[1-methyl-6-oxo-3-(2-phenoxyphenyl)-1,6-dihydropyridazin-4-yl]phenyl}ethyl)acetamide] are 143 nM, 72.2 nM and over 3000 nM.
The like results for `Cn1nc(-c2ccccc2Oc2ccccc2)c(-c2ccc(CCCO)cc2)cc1=O` [Example 101, 5-[4-(3-hydroxypropyl)phenyl]-2-methyl-6-(2-phenoxyphenyl)pyridazin-3(2H)-one] were, in that order, 233 nM, 147 nM and 1130 nM.
As to `Cn1cc(-c2cc(=O)n(C)nc2-c2ccccc2Oc2ccccc2)cn1` [Example 103, 2-methyl-5-(1-methyl-1H-pyrazol-4-yl)-6-(2-phenoxyphenyl)pyridazin-3(2H)-one], the Ki was 253 nM in experiment [1] and 109 nM in experiment [3]. For the same compound, the EC50 in experiment [2] is over 3000 nM.
The like results for `CC(=O)Nc1ccc(-c2cc(=O)n(C)nc2-c2ccccc2Oc2ccccc2)cc1` [Example 105, N-{4-[1-methyl-6-oxo-3-(2-phenoxyphenyl)-1,6-dihydropyridazin-4-yl]phenyl}acetamide] were, in that order, 516 nM, 84.7 nM and over 3000 nM.
The like results for `Cn1nc(-c2ccccc2Oc2ccccc2)c(-c2ccc(S(N)(=O)=O)cc2)cc1=O` [Example 112, 4-[1-methyl-6-oxo-3-(2-phenoxyphenyl)-1,6-dihydropyridazin-4-yl]benzenesulfonamide] were, in that order, 138 nM, 181 nM and 1280 nM.
In the same order, the values of `Cn1nc(-c2ccccc2Oc2ccccc2)c(-c2ccc(NS(C)(=O)=O)cc2)cc1=O` [Example 119, N-{4-[1-methyl-6-oxo-3-(2-phenoxyphenyl)-1,6-dihydropyridazin-4-yl]phenyl}methanesulfonamide] are 135 nM, 63.6 nM and 615 nM.
Consider `CNC(=O)c1ccc(-c2cc(=O)n(C)nc2-c2ccccc2Oc2ccccc2)cc1` [Example 127, N-methyl-4-[1-methyl-6-oxo-3-(2-phenoxyphenyl)-1,6-dihydropyridazin-4-yl]benzamide], for which the values for the Ki in experiment [1] and in experiment [3] were 249 nM and 139 nM, respectively. In addition, the EC50 in experiment [2] was over 3000 nM.
In the same order, the values of `Cn1nc(-c2ccccc2Oc2ccccc2)c(-c2ccc(N3CCOCC3)cc2)cc1=O` [Example 149, 2-methyl-5-[4-(morpholin-4-yl)phenyl]-6-(2-phenoxyphenyl)pyridazin-3(2H)-one] are 213 nM, 259 nM and 384 nM.
In the same order, the values of `CN1CCN(c2ccc(-c3cc(=O)n(C)nc3-c3ccccc3Oc3ccccc3)cc2)CC1` [Example 161, 2-methyl-5-[4-(4-methylpiperazin-1-yl)phenyl]-6-(2-phenoxyphenyl)pyridazin-3(2H)-one] are 26.3 nM, 24.9 nM and 244 nM.
The like results for `CC(C)N1CCN(c2ccc(-c3cc(=O)n(C)nc3-c3ccccc3Oc3ccccc3)cc2)CC1` [Example 180, 2-methyl-6-(2-phenoxyphenyl)-5-{4-[4-(propan-2-yl)piperazin-1-yl]phenyl}pyridazin-3(2H)-one] were, in that order, 44.5 nM, 67.7 nM and 372 nM.
For `CNc1ccc(-c2cc(=O)n(C)nc2-c2ccccc2Oc2ccccc2)cc1` [Example 191, 2-methyl-5-[4-(methylamino)phenyl]-6-(2-phenoxyphenyl)pyridazin-3(2H)-one], the Ki in experiment [1] is 324 nM; in experiment [3] it was 162 nM. Also, the EC50 in experiment [2] worked out at 1430 nM.
The like results for `Cn1nc(-c2ccccc2Oc2ccccc2)c(-c2cccc(CC#N)c2)cc1=O` [Example 193, {3-[1-methyl-6-oxo-3-(2-phenoxyphenyl)-1,6-dihydropyridazin-4-yl]phenyl}acetonitrile] were, in that order, 167 nM, 1010 nM and 1290 nM.
The like results for `COC(=O)c1cc(=O)n(C)nc1-c1ccccc1Oc1ccccc1` [Example 218, methyl 1-methyl-6-oxo-3-(2-phenoxyphenyl)-1,6-dihydropyridazine-4-carboxylate] were, in that order, 778 nM, 1140 nM and 9700 nM.
Consider `COC(=O)/C=C/c1cc(=O)n(C)nc1-c1ccccc1Oc1ccccc1` [Example 219, methyl (2E)-3-[1-methyl-6-oxo-3-(2-phenoxyphenyl)-1,6-dihydropyridazin-4-yl]prop-2-enoate], for which the Ki in experiment [1] was 7250 nM; in experiment [3], 308 nM. Moreover, the EC50 in experiment [2] is 5500 nM.
As to `COC(=O)CCc1cc(=O)n(C)nc1-c1ccccc1Oc1ccccc1` [Example 220, methyl 3-[1-methyl-6-oxo-3-(2-phenoxyphenyl)-1,6-dihydropyridazin-4-yl]propanoate], the Ki is 24300 nM in experiment [1] and 1910 nM in experiment [3]. Further, in experiment [2], the EC50 stood at 16400 nM.
Take `CC(=O)c1cc(=O)n(C)nc1-c1ccccc1Oc1ccccc1` [Example 221, 5-acetyl-2-methyl-6-(2-phenoxyphenyl)pyridazin-3(2H)-one]: the Ki in experiment [1] is 976 nM; in experiment [3], 517 nM. In addition, the EC50 in experiment [2] came to 7200 nM.
In the same order, the values of `Cn1cc(-c2ccccc2Oc2ccccc2)ccc1=O` [Example 223, 1-methyl-5-(2-phenoxyphenyl)pyridin-2(1H)-one] are 635 nM, 872 nM and 4810 nM.
In the same order, the values of `COC(=O)CS(=O)(=O)Nc1ccc(Oc2ccccc2)c(-c2ccc(=O)n(C)c2)c1` [Example 225, methyl {[3-(1-methyl-6-oxo-1,6-dihydropyridin-3-yl)-4-phenoxyphenyl]sulfamoyl}acetate] are 152 nM, 107 nM and 10000 nM.
As to `Cn1cc(-c2cc(NS(=O)(=O)CC(=O)O)ccc2Oc2ccccc2)ccc1=O` [Example 226, {[3-(1-methyl-6-oxo-1,6-dihydropyridin-3-yl)-4-phenoxyphenyl]sulfamoyl}acetic acid], the inhibitory constant (Ki) in experiment [1] is 271 nM; in experiment [3] it was 1130 nM. Moreover, the EC50 in experiment [2] came out at 10000 nM.
In the same order, the values of `Cn1cnc(S(=O)(=O)Nc2ccc(Oc3ccccc3)c(-c3ccc(=O)n(C)c3)c2)c1` [Example 227, 1-methyl-N-[3-(1-methyl-6-oxo-1,6-dihydropyridin-3-yl)-4-phenoxyphenyl]-1H-imidazole-4-sulfonamide] are 157 nM, 420 nM and over 3000 nM.
In the same order, the values of `Cn1cc(-c2cc(NS(=O)(=O)c3c[nH]cn3)ccc2Oc2ccccc2)ccc1=O` [Example 228, N-[3-(1-methyl-6-oxo-1,6-dihydropyridin-3-yl)-4-phenoxyphenyl]-1H-imidazole-4-sulfonamide] are 142 nM, 154 nM and over 3000 nM.
`Cn1cc(-c2cc(NS(=O)(=O)CC(F)(F)F)ccc2Oc2ccccc2)ccc1=O` [Example 229, 2,2,2-trifluoro-N-[3-(1-methyl-6-oxo-1,6-dihydropyridin-3-yl)-4-phenoxyphenyl]ethanesulfonamide]: the Ki in experiment [1] was 31.8 nM; in experiment [3], 21.8 nM. Besides, the EC50 in experiment [2] amounted to 507 nM.

The record behind these values is patent US9561231B2 (AbbVie Inc., priority 2012, dated 2017).
